From US20240277860A1, “CAMPTOTHECIN PEPTIDE CONJUGATES” (priority 2019, published 2024)
Where two headings read alike, the source gives them in different places.

Columns and labels:
Format in all cases: cell-based
[1] = system: renal carcinoma cells (786-O); assay: In vitro potency, CellTiter-Glo growth inhibition, 786-O; details: Homo sapiens, read-out: IC50 786-O
Experimental: (§1) In vitro potency was assessed on multiple cancer cell lines. All cell lines were authenticated by STR profiling at IDEXX Bioresearch and cultured for no more than 2 months after resuscitation. Cells cultured in log-phase growth were seeded for 24 hours in 96-well plates containing 150 μl RPMI 1640 supplemented with 20% FBS. Serial dilutions of antibody-drug conjugates in cell culture media were prepared at 4× working concentrations, and 50 μl of each dilution was added to the 96-well plates. Following addition of test articles, cells were incubated with test articles for 4 days at 37° C. After 96 hours, growth inhibition was assessed by CellTiter-Glo® (Promega, Madison, WI) and luminescence was measured on a plate reader. The IC50 value, determined in triplicate, is defined here as the concentration that results in 50% reduction in cell growth relative to untreated controls.
(§2) In the following Tables IC50 values for ADCs and campthothecin free drugs are given in ng/mL and […] concentrations, respectively. Cell viability was determined by CellTiter-Glo staining after 96 h exposure to ADC. ND=Not Determined. Ag1 is an antibody targeting a ubiquitous and readily internalizable antigen on cancer cells.

[2] = system: pancreatic cancer cells (BxPC3); assay: In vitro potency, CellTiter-Glo growth inhibition, BxPC3; details: Homo sapiens, read-out: IC50 BxPC3
Experimental: as §1, §2

[3] = system: MDR(−) acute promyelocytic leukemia cells (HL-60); assay: In vitro potency, CellTiter-Glo growth inhibition, HL-60; details: Homo sapiens, read-out: IC50 HL-60
Experimental: as §1, §2

[4] = system: MDR(+) acute promyelocytic leukemia cells (HL60/RV); assay: In vitro potency, CellTiter-Glo growth inhibition, HL60/RV; details: Homo sapiens, read-out: IC50 HL60/RV
Experimental: as §1, §2

[5] = system: Hodgkin's lymphoma cells (L540cy); assay: In vitro potency, CellTiter-Glo growth inhibition, L540cy; details: 96 h, read-out: IC50 L540cy
Experimental: as §1, §2

[6] = system: multiple myeloma cells (MM.1R); assay: In vitro potency, CellTiter-Glo growth inhibition, MM.1R; details: 96 h, read-out: IC50 MM.1R
Experimental: as §1, §2

[7] = system: acute myeloid leukemia cells (MOLM13); assay: In vitro potency, CellTiter-Glo growth inhibition, MOLM-13; details: Homo sapiens, read-out: IC50 MOLM-13
Experimental: as §1, §2

[8] = system: Burkitt's lymphoma cells (Ramos); assay: In vitro potency, CellTiter-Glo growth inhibition, Ramos; details: Homo sapiens, 96 h, read-out: IC50 Ramos
Experimental: as §1, §2

[9] = system: melanoma cells (SK-MEL-5); assay: In vitro potency, CellTiter-Glo growth inhibition, SK-MEL-5; details: Homo sapiens, read-out: IC50 SK-MEL-5
Experimental: as §1, §2

[10] = system: B-lymphocyte cancer cells (SU-DHL-4); assay: In vitro potency, CellTiter-Glo growth inhibition, SU-DHL-4; details: Homo sapiens, read-out: IC50 SU-DHL-4
Experimental: as §1, §2

[11] = system: B-lymphocyte cancer cells (U266); assay: In vitro potency, CellTiter-Glo growth inhibition, U-266; details: Homo sapiens, read-out: IC50 U-266
Experimental: as §1, §2

[12] = 786-0, camptothecin free drugs, 96 h, CellTiter-Glo
[13] = BXPC-3, camptothecin free drugs, 96 h, CellTiter-Glo
[14] = HL-60, camptothecin free drugs, 96 h, CellTiter-Glo
[15] = camptothecin free drugs, CellTiter-Glo
[16] = MOLM-13, camptothecin free drugs, 96 h, CellTiter-Glo
[17] = SK-MEL-5, camptothecin free drugs, 96 h, CellTiter-Glo
[18] = SU-DHL-4, camptothecin free drugs, 96 h, CellTiter-Glo
[19] = U-266, camptothecin free drugs, 96 h, CellTiter-Glo

Row | SMILES | IC50 ([1]; 786-0, 96 h) [nM] | IC50 ([2]; BXPC-3, 96 h) [nM] | IC50 ([3]; HL-60, 96 h) [nM] | IC50 ([4]; HL-60, 96 h) [nM] | IC50 [5] [nM] | IC50 [6] [nM] | IC50 ([7]; MOLM-13, 96 h) [nM] | IC50 [8] [nM] | IC50 ([9]; SK-MEL-5, 96 h) [nM] | IC50 ([10]; SU-DHL-4, 96 h) [nM] | IC50 ([11]; U-266, 96 h) [nM] | IC50 [1, 12] [nM] | IC50 [2, 13] [nM] | IC50 [3, 14] [nM] | IC50 [4, 14] [nM] | IC50 [5, 15] [nM] | IC50 [6, 15] [nM] | IC50 [7, 16] [nM] | IC50 [8, 15] [nM] | IC50 [9, 17] [nM] | other results
1 | CC[C@@]1(O)C(=O)OCc2c1cc1n(c2=O)Cc2c-1nc1cc3c(cc1c2CNC(=O)[C@@H](N)CC(C)C)OCO3 [Compound 3] | > 1000 | 9 | 30 | 194 | 5 | 4 | 8 | 2 | 15 | 3 | 6 | – | – | – | – | – | – | – | – | – | –
2 | CC[C@@]1(O)C(=O)OCc2c1cc1n(c2=O)Cc2c-1nc1cc3c(cc1c2CNC(=O)[C@H](C)N)OCO3 [Compound 3a] | 381 | 42 | 106 | 416 | 12 | 8 | 23 | 6 | 49 | 8 | 20 | – | – | – | – | – | – | – | – | – | –
3 | CC[C@@]1(O)C(=O)OCc2c1cc1n(c2=O)Cc2c-1nc1cc3c(cc1c2CNC(=O)[C@@H](N)C(C)C)OCO3 [Compound 3b] | > 1000 | 12 | 23 | 857 | 6 | 4 | 5 | 1 | 14 | 2 | 8 | – | – | – | – | – | – | – | – | – | –
4 | CC[C@@]1(O)C(=O)OCc2c1cc1n(c2=O)Cc2c-1nc1cc3c(cc1c2CNC(=O)C(C)(C)N)OCO3 [Compound 3d] | > 1000 | 10 | 25 | 840 | 4 | 3 | 5 | 1 | 14 | 3 | 4 | – | – | – | – | – | – | – | – | – | –
5 | CC[C@@]1(O)C(=O)OCc2c1cc1n(c2=O)Cc2c-1nc1cc3c(cc1c2CNC(=O)[C@@H](N)CCSC)OCO3 [Compound 3e] | > 1000 | 19 | 92 | 370 | 13 | 6 | 16 | 4 | 27 | 5 | 12 | – | – | – | – | – | – | – | – | – | –
6 | CC[C@@]1(O)C(=O)OCc2c1cc1n(c2=O)Cc2c-1nc1cc3c(cc1c2CNC(=O)[C@@H](N)Cc1ccccc1)OCO3 [Compound 3f] | – | – | – | – | – | – | – | – | – | – | – | > 1000 | 39 | 88 | > 1000 | 34 | 9 | 14 | 4 | 45 | IC50 [10, 18]: 5 nM; IC50 [11, 19]: 17 nM
7 | CC[C@@]1(O)C(=O)OCc2c1cc1n(c2=O)Cc2c-1nc1cc3c(cc1c2CNC(=O)[C@@H](N)CCCNC(=N)N)OCO3 [Compound 3g] | – | – | – | – | – | – | – | – | – | – | – | > 1000 | 18 | 191 | 51 | 4 | 6 | 57 | 6 | 34 | IC50 [10, 18]: 6 nM; IC50 [11, 19]: 15 nM
8 | CC[C@@]1(O)C(=O)OCc2c1cc1n(c2=O)Cc2c-1nc1cc3c(cc1c2CNC(=O)[C@@H](N)CCCCN)OCO3 [Compound 3h] | > 1000 | 42 | 552 | 128 | 7 | 13 | 97 | 12 | 60 | 14 | 36 | – | – | – | – | – | – | – | – | – | –
9 | CC[C@@]1(O)C(=O)OCc2c1cc1n(c2=O)Cc2c-1nc1cc3c(cc1c2CNC(=O)[C@@H](N)Cc1c[nH]cn1)OCO3 [Compound 3i] | – | – | – | – | – | – | – | – | – | – | – | 22 | 331 | > 1000 | > 1000 | 321 | 147 | 996 | 197 | 414 | IC50 [10, 18]: 255 nM; IC50 [11, 19]: 452 nM
10 | CC[C@@]1(O)C(=O)OCc2c1cc1n(c2=O)Cc2c-1nc1cc3c(cc1c2CNC(=O)[C@@H](N)CC(=O)O)OCO3 [Compound 3j] | 26 | 648 | > 1000 | > 1000 | 687 | 318 | 588 | 99 | 910 | 145 | 436 | – | – | – | – | – | – | – | – | – | –
11 | CC[C@@]1(O)C(=O)OCc2c1cc1n(c2=O)Cc2c-1nc1cc3c(cc1c2CNC(=O)[C@@H](N)CCC(=O)O)OCO3 [Compound 3k] | – | – | – | – | – | – | – | – | – | – | – | 21 | > 1000 | > 1000 | > 1000 | 415 | 576 | > 1000 | 451 | > 1000 | IC50 [10, 18]: 667 nM; IC50 [11, 19]: > 1000 nM
12 | CC[C@@]1(O)C(=O)OCc2c1cc1n(c2=O)Cc2c-1nc1cc3c(cc1c2CNC(=O)[C@@H](N)[C@@H](C)O)OCO3 [Compound 3l] | > 1000 | 64 | 298 | > 1000 | 27 | 22 | 45 | 8 | 109 | 16 | 57 | – | – | – | – | – | – | – | – | – | –
13 | CC[C@@]1(O)C(=O)OCc2c1cc1n(c2=O)Cc2c-1nc1cc3c(cc1c2CNC(=O)[C@@H](N)CCC(N)=O)OCO3 [Compound 3m] | 51 | 160 | 823 | > 1000 | 76 | 30 | 125 | 34 | 208 | 71 | 86 | – | – | – | – | – | – | – | – | – | –
14 | CC[C@@]1(O)C(=O)OCc2c1cc1n(c2=O)Cc2c-1nc1cc3c(cc1c2CNC(=O)[C@@H](N)Cc1c[nH]c2ccccc12)OCO3 [Compound 3n] | – | – | – | – | – | – | – | – | – | – | – | 83 | 143 | 526 | > 1000 | 185 | 74 | 80 | 18 | 330 | IC50 [10, 18]: 27 nM; IC50 [11, 19]: 62 nM
